Measured values published in article PMC8842630, “Imidazoline- and Benzamidine-Based Trypanosome Alternative Oxidase Inhibitors: Synthesis and Structure–Activity Relationship Studies” (ACS Medicinal Chemistry Letters, 2022).
Where “and” joins values, the source holds several entries; their conditions need not be identical. Equal entries are not always repeated.

Legend:
[1] = test system: T. b. brucei strain resistant to pentamidine (B48); assay: microbe, parasite or virus in culture; assay type: cell-based; details: for EC50: Trypanosoma brucei, read-out: T. b. brucei EC50 B48
in vitro = details: human
[2] = test system: Bloodstream form trypomastigotes of T. b. brucei strain 427 (WT); assay: Resazurin-based susceptibility assay, wild-type T. b. brucei; assay type: cell-based; details: for EC50: BSF trypomastigotes strain 427, n = 3; for trypanocidal activity against T. brucei (in words): compounds with short linkers (C-3)
Description: . […] This finding was in agreement with previous reports on TAO inhibitors showing that a decrease in efficacy against T. b. brucei growth inhibition was observed as chain length decreased.[8],[9],[23]
(§1) BSF trypanosomes of monomorphic strains Lister 427 (WT), multi-drug-resistant clone B48, and the AQP1-3 KO, which lacks all aquaglyceroporins,[26] were grown in complete HMI-9 with 10% fetal bovine serum, exactly as described, and tested using a standard resazurin-based assay with 23 doubling dilutions for each compound starting at 100 μM.[27] Human embryonic kidney (HEK) cells were cultured and assayed with a resazurin-based assay exactly as described previously.[9] EC50 values were calculated by nonlinear regression with an equation for a sigmoid curve with variable slope (Prism 8.0, GraphPad).

[3] = test system: T. brucei cell line from which all aquaporins were knocked out (AQP1-3 KO); assay: microbe, parasite or virus in culture; assay type: cell-based, T. b. brucei; details: for EC50: Trypanosoma brucei, read-out: T. b. brucei EC50 AQP1-3 KO; for RF (resistance factor relative to WT), AQP1-3 KO: EC50 AQP1-3 KO / EC50 WT
Description: as §1

[4] = target: Purified recombinant trypanosome alternative oxidase (ΔMTS-TAO) (Trypanosoma brucei brucei, UniProt Q26710); assay: Inhibition of ubiquinol oxidase activity of purified ΔMTS-TAO; details: for IC50: rTAO IC50, purified ΔMTS-TAO, n = 3; for inhibition at 40 µM: read-out: rTAO % inhibition at 40 μM; for inhibition at 10 µM: read-out: rTAO % inhibition (compound tested at 10 μM)
[5] = test system: human embryonic kidney (HEK) cells; details: HEK CC50 / T. b. brucei WT EC50

Purified recombinant trypanosome alternative oxidase (ΔMTS-TAO), sequence (Q26710 26-329, stated change not applied): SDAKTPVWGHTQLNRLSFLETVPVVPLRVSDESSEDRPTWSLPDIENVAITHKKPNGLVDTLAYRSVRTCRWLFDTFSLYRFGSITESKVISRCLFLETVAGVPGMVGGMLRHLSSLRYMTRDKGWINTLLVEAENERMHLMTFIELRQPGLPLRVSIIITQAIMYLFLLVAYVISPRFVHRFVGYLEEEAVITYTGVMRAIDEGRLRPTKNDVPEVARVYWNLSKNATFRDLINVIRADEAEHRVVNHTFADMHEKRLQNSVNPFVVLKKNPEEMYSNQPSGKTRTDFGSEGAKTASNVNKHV

CC(=O)O.Cc1cc(O)cc(O)c1C(=O)NCCCOc1ccc(C(=N)N)cc1 [1a]
EC50 [1]: > 100 µM
CC50 (in vitro): > 200 µM
EC50 ([2]; Trypanosoma brucei): > 100 µM
trypanocidal activity against T. brucei (in words) [2]: inactive

CC(=O)O.Cc1cc(O)cc(O)c1C(=O)NCCCCCCOc1ccc(C(=N)N)cc1 [1b]
EC50 [3]: 17.4 ± 0.9 µM
EC50 [1]: 28 ± 0.5 µM
CC50 (in vitro): > 200 µM
EC50 ([2]; Trypanosoma brucei): 15.5 ± 0.6 µM
IC50 [4]: > 40 µM
inhibition at 40 µM [4]: 12.5%
SI (selectivity index) = CC50/EC50 (WT) [5]: >12.9

CC(=O)O.Cc1cc(O)cc(O)c1C(=O)NCCCCCCCCCCCCOc1ccc(C(=N)N)cc1 [1c]
EC50 [1]: 3.6 ± 0.1 µM
CC50 (in vitro): 43.5 ± 5.4 µM
EC50 [2]: 3.3 ± 0.2 µM
EC50 ([2]; Trypanosoma brucei): < 4 µM
IC50 [4]: > 40 µM
inhibition at 40 µM [4]: 39.3%
SI (selectivity index) = CC50/EC50 (WT) [5]: 13.2

Cc1cc(O)cc(O)c1C(=O)NCCCCCCCCCCCCCCOc1ccc(C(=N)N)cc1 [1d]
EC50 [1]: 28.9 ± 5.2 µM
CC50 (in vitro): > 200 µM
EC50 ([2]; Trypanosoma brucei): 18.6 ± 1.1 µM
IC50 [4]: > 40 µM
inhibition at 40 µM [4]: 31.4%

CC(=O)O.Cc1cc(O)cc(O)c1C(=O)NCCCCCCCCCCCCOc1ccc(C2=NCCN2)cc1 [2c]
EC50 [3]: 2.9 ± 0.4 µM
CC50 (in vitro): 67.2 ± 0.8 µM
IC50 [4]: > 10 µM
inhibition at 10 µM [4]: 10%
SI (selectivity index) = CC50/EC50 (WT) [5]: 39.1

CC(=O)O.Cc1cc(O)cc(O)c1C(=O)NCCCCCCCCCCCCOc1ccc(N=C2NCCN2)cc1 [3c]
EC50 [3]: 3.92 ± 0.03 µM
CC50 (in vitro): > 100 µM
EC50 [2]: 2.7 ± 0.4 µM
EC50 ([2]; Trypanosoma brucei): < 4 µM
melting point: 44.5 to 51.1 °C
IC50 [4]: 22.5 ± 0.3 µM
inhibition at 10 µM [4]: 46.3%
SI (selectivity index) = CC50/EC50 (WT) [5]: >36.5

Cc1cc(O)cc(O)c1C(=O)NCCCOc1ccc(C#N)cc1 [7a]
EC50 [1]: 50.8 ± 2.7 µM
CC50 (in vitro): > 200 µM
EC50 ([2]; Trypanosoma brucei): 37.2 ± 3.4 µM
trypanocidal activity against T. brucei (in words) [2]: poorly active
IC50 [4]: > 40 µM
inhibition at 40 µM [4]: 28.8%
SI (selectivity index) = CC50/EC50 (WT) [5]: >5.3

Cc1cc(O)cc(O)c1C(=O)NCCCCCCOc1ccc(C#N)cc1 [7b]
EC50 [3]: 30.5 ± 0.7 µM
EC50 [1]: 27.7 ± 2 µM
CC50 (in vitro): > 200 µM
EC50 ([2]; Trypanosoma brucei): 30.4 ± 0.4 µM
IC50 [4]: 1.52 µM and 1.5 µM
inhibition at 40 µM [4]: 96.2%

Cc1cc(O)cc(O)c1C(=O)NCCCCCCCCCCCCOc1ccc(C#N)cc1 [7c]
EC50 [1]: 15.9 ± 0.7 µM
CC50 (in vitro): 57.1 ± 0.1 µM
EC50 ([2]; Trypanosoma brucei): 15.6 ± 0.7 µM
melting point: 81.9 °C
IC50 [4]: > 40 µM
inhibition at 40 µM [4]: 27.4%
SI (selectivity index) = CC50/EC50 (WT) [5]: 3.7

Cc1cc(O)cc(O)c1C(=O)NCCCCCCCCCCCCCCOc1ccc(C#N)cc1 [7d]
EC50 [1]: 15.7 ± 0.5 µM
CC50 (in vitro): 56.8 ± 0.2 µM
EC50 ([2]; Trypanosoma brucei): 14.8 ± 0.5 µM
IC50 [4]: 16.4 ± 0.7 µM
inhibition at 40 µM [4]: 89.7%
SI (selectivity index) = CC50/EC50 (WT) [5]: 3.8

Cc1cc(O)cc(O)c1C(=O)NCCCOc1ccc(C(=N)NO)cc1 [8a]
EC50 [1]: > 100 µM
CC50 (in vitro): > 200 µM
EC50 ([2]; Trypanosoma brucei): > 100 µM
trypanocidal activity against T. brucei (in words) [2]: inactive
IC50 [4]: > 40 µM
inhibition at 40 µM [4]: 14.1%

Cc1cc(O)cc(O)c1C(=O)NCCCCCCOc1ccc(C(=N)NO)cc1 [8b]
EC50 [3]: 21 ± 1 µM
EC50 [1]: 36 ± 1.8 µM
CC50 (in vitro): 76.8 ± 7.2 µM
EC50 ([2]; Trypanosoma brucei): 19.5 ± 1 µM
IC50 [4]: > 40 µM
inhibition at 40 µM [4]: -14.9%
SI (selectivity index) = CC50/EC50 (WT) [5]: 3.9

Cc1cc(O)cc(O)c1C(=O)NCCCCCCCCCCCCOc1ccc(C(=N)NO)cc1 [8c]
EC50 [1]: 9.1 ± 0.5 µM
CC50 (in vitro): 109 ± 1.6 µM
EC50 ([2]; Trypanosoma brucei): 8.4 ± 1.1 µM
IC50 [4]: > 40 µM
inhibition at 40 µM [4]: 44.8%
SI (selectivity index) = CC50/EC50 (WT) [5]: 13

Cc1cc(O)cc(O)c1C(=O)NCCCCCCCCCCCCCCOc1ccc(C(=N)NO)cc1 [8d]
EC50 [1]: 27.1 ± 2.4 µM
CC50 (in vitro): > 200 µM
EC50 ([2]; Trypanosoma brucei): 29 ± 2.2 µM
IC50 [4]: > 40 µM
inhibition at 40 µM [4]: -3.4%

Cc1cc(O)cc(O)c1C(=O)NCCCCCCCCCCCCOc1ccc([N+](=O)[O-])cc1 [11c]
EC50 [3]: 10.2 ± 0.7 µM
CC50 (in vitro): > 100 µM
EC50 ([2]; Trypanosoma brucei): 9.5 ± 0.5 µM
melting point: 102.3 to 106.3 °C
IC50 [4]: 30 ± 1.5 µM
inhibition at 10 µM [4]: 53.8%
SI (selectivity index) = CC50/EC50 (WT) [5]: >10.5

Cc1cc(O)cc(O)c1C(=O)NCCCCCCCCCCCCOc1ccc(N)cc1 [12c]
RF (resistance factor relative to WT), AQP1-3 KO [3]: 1.5
EC50 [3]: 29.6 ± 2.2 µM
CC50 (in vitro): > 100 µM
EC50 ([2]; Trypanosoma brucei): 20.3 ± 1.3 µM
SI (selectivity index) = CC50/EC50 (WT) [5]: >4.9

Cc1cc(O)cc(O)c1C(=O)NCCCCCCCCCCCCOc1ccc(N=C2N(C(=O)OC(C)(C)C)CCN2C(=O)OC(C)(C)C)cc1 [14c]
RF (resistance factor relative to WT), AQP1-3 KO [3]: 1.5
EC50 [3]: 15.7 ± 0.3 µM
CC50 (in vitro): > 100 µM
EC50 ([2]; Trypanosoma brucei): 10.4 ± 0.7 µM
SI (selectivity index) = CC50/EC50 (WT) [5]: >9.6

C/C(=C\Cc1c(O)c(Cl)c(C)c(C=O)c1O)CC/C=C(\C)[C@@H]1CC(=O)C(C)(C)O1 [ascofuranone, reference compound]
inhibition at 40 µM [4]: 100%

Cc1cc(O)c(C(=O)CCCCCCCCCCCCCCCOc2ccc(C#N)cc2)c(O)c1 [compound 20]
EC50 [3]: 8.2 ± 0.9 µM
CC50 (in vitro): > 100 µM
fold lower EC50 versus 7d ([2]; T. brucei WT EC50 of 20 versus 7d): 2.5 fold
EC50 ([2]; Trypanosoma brucei): 5.8 ± 0.7 µM
TAO inhibition (in words) [4]: lack of TAO inhibition
IC50 [4]: > 10 µM
inhibition at 10 µM [4]: 13.4%
SI (selectivity index) = CC50/EC50 (WT) [5]: >17.1

Cc1cc(O)cc(OC(=O)CCCCCCCCCCCCCCCOc2ccc(C#N)cc2)c1 [compound 21]
EC50 [3]: > 100 µM
CC50 (in vitro): > 100 µM
EC50 ([2]; Trypanosoma brucei): > 100 µM
IC50 [4]: > 10 µM
inhibition at 10 µM [4]: 30%

N=C(N)c1ccc(/N=N/Nc2ccc(C(=N)N)cc2)cc1 [diminazene, reference compound]
RF (resistance factor relative to WT), B48 ([1]; EC50 B48 / EC50 WT): 1.1
EC50 [1]: 0.107 ± 0.019 µM
EC50 ([2]; Trypanosoma brucei): 0.095 ± 0.011 µM

N=C(N)c1ccc(OCCCCCOc2ccc(C(=N)N)cc2)cc1 [pentamidine, reference compound]
EC50 [3]: 0.046 ± 0.003 µM
EC50 [1]: 0.208 ± 0.021 µM
EC50 ([2]; Trypanosoma brucei): 0.004 ± 0.001 µM
